Measured values from patent publication US20020035061A1, “COMPOSITIONS AND METHODS FOR TREATING INFECTIONS USING CATIONIC PEPTIDES ALONE OR IN COMBINATION WITH ANTIBIOTICS” (priority 1996, published 2002).

System: bacterial isolates
Experiment: microbe, parasite or virus in culture
Type: cell-based

KWKSFIKKLTSAAKKVVTTAKPLISS [MBI 26]
Peptide MIC Alone (P. aeruginosa PA4, Mupirocin section): >128 µg/mL
Ceftriaxone MIC + Peptide (P. aeruginosa PA008): 8 µg/mL
Peptide MIC + Ceftriaxone (P. aeruginosa PA008): 0.125 µg/mL
Ceftriaxone MIC + Peptide (P. aeruginosa PA024): 4 µg/mL
Peptide MIC + Ceftriaxone (P. aeruginosa PA024): 32 µg/mL
Gentamicin MIC + Peptide (P. aeruginosa PA041): 1 µg/mL
Peptide MIC + Gentamicin (P. aeruginosa PA041): 32 µg/mL
Ciprofloxacin MIC + Peptide (P. aeruginosa PA41): 1 µg/mL
Peptide MIC + Ciprofloxacin (P. aeruginosa PA41): 32 µg/mL
Ciprofloxacin MIC + Peptide (P. aeruginosa PA77): 0.125 µg/mL
Peptide MIC + Ciprofloxacin (P. aeruginosa PA77): 64 µg/mL
Peptide MIC + Piperacillin (S. aureus 19 MRSA): 1 µg/mL
Piperacillin MIC + Peptide (S. aureus 19 MRSA): 16 µg/mL
Peptide MIC Alone (S. aureus 19 MRSA, Piperacillin section): 32 µg/mL
Ciprofloxacin MIC + Peptide (S. aureus SA11): 32 µg/mL
Peptide MIC + Ciprofloxacin (S. aureus SA11): 0.125 µg/mL
Ceftriaxone MIC + Peptide (S. aureus SA025 MRSA): 0.125 µg/mL
Peptide MIC + Ceftriaxone (S. aureus SA025 MRSA): 0.5 µg/mL
FIC (S. aureus SA044, combination with Ciprofloxacin): 0.63
FIC (S. aureus SA7609, combination with Clindamycin): 0.25
FIC (S. aureus SA7609, combination with Methicillin): 0.56
FIC (S. aureus SA7610, combination with Clindamycin): 0.63
FIC (S. aureus SA7610, combination with Methicillin): 0.31
FIC (S. aureus SA7795, combination with Ampicillin): 0.52
FIC (S. aureus SA7795, combination with Clindamycin): 0.53
FIC (S. aureus SA7796, combination with Ampicillin): 1.00
FIC (S. aureus SA7796, combination with Clindamycin): 0.51
FIC (S. aureus SA7817, combination with Ampicillin): 0.50
FIC (S. aureus SA7818, combination with Ampicillin): 1.00
FIC (S. aureus SA7818, combination with Erythromycin): 0.15
FIC (S. aureus SA7821, combination with Erythromycin): 0.50
FIC (S. aureus SA7822, combination with Ampicillin): 0.25
FIC (S. aureus SA7823, combination with Ampicillin): 0.25
FIC (S. aureus SA7824, combination with Ampicillin): 1.00
FIC (S. aureus SA7825, combination with Ampicillin): 1.00
FIC (S. aureus SA7825, combination with Erythromycin): 1.00
FIC (S. aureus SA7834, combination with Ampicillin): 0.53
FIC (S. aureus SA7834, combination with Clindamycin): 0.56
FIC (S. aureus SA7835, combination with Ampicillin): 0.53
FIC (S. aureus SA7836, combination with Ampicillin): 0.75
FIC (S. aureus SA7837, combination with Ampicillin): 1.00
FIC (S. aureus SAATCC25293, combination with Methicillin): 0.50
FIC (S. aureus SAATCC29213, combination with Methicillin): 0.31
FIC (S. aureus SAW1133, combination with Methicillin): 0.75
Peptide MIC + Piperacillin (S. aureus SB3MRSA): 16 µg/mL
Piperacillin MIC + Peptide (S. aureus SB3MRSA): 64 µg/mL
Peptide MIC Alone (S. aureus SB3MRSA, Piperacillin section): >128 µg/mL
Mupirocin MIC + Peptide (S. aureus SBSA4): 30 µg/mL
Peptide MIC + Mupirocin (S. aureus SBSA4): 8 µg/mL
Peptide MIC Alone (S. aureus SBSA4, Mupirocin section): 32 µg/mL
Ceftriaxone MIC + Peptide (S. epidermidis SE007): 2 µg/mL
Peptide MIC + Ceftriaxone (S. epidermidis SE007): 0.5 µg/mL
Ceftriaxone MIC + Peptide (S. epidermidis SE012): 16 µg/mL
Peptide MIC + Ceftriaxone (S. epidermidis SE012): 1 µg/mL
Peptide MIC + Tobramycin (S. epidermidis SE067): 0.25 µg/mL
Peptide MIC Alone (S. epidermidis SE067): 2 µg/mL
Tobramycin MIC + Peptide (S. epidermidis SE067): 64 µg/mL
Peptide MIC + Tobramycin (S. epidermidis SE068): 0.5 µg/mL
Peptide MIC Alone (S. epidermidis SE068): 2 µg/mL
Tobramycin MIC + Peptide (S. epidermidis SE068): 4 µg/mL
FIC (S. epidermidis SE8406, combination with Clindamycin): 0.50
FIC (S. epidermidis SE8416, combination with Clindamycin): 0.56
FIC (S. epidermidis SE8505, combination with Ampicillin): 1.00
FIC (S. epidermidis SE8565, combination with Ampicillin): 1.00
FIC (S. haemolyticus SH8459, combination with Ampicillin): 0.52
FIC (S. haemolyticus SH8472, combination with Ampicillin): 0.56
FIC (S. haemolyticus SH8563, combination with Ampicillin): 0.75
FIC (S. haemolyticus SH8564, combination with Ampicillin): 0.62
FIC (S. haemolyticus SH8575, combination with Ampicillin): 0.75
FIC (S. haemolyticus SH8576, combination with Ampicillin): 0.62
FIC (S. haemolyticus SH8578, combination with Ampicillin): 1.00
Peptide MIC + Piperacillin (S. maltophilia 3): 4 µg/mL
Piperacillin MIC + Peptide (S. maltophilia 3): 32 µg/mL
Peptide MIC Alone (S. maltophilia 3, Piperacillin section): 16 µg/mL
Ciprofloxacin MIC + Peptide (S. maltophilia 34): 0.25 µg/mL
Peptide MIC + Ciprofloxacin (S. maltophilia 34): 8 µg/mL
Peptide MIC + Piperacillin (S. maltophilia 34): 16 µg/mL
Piperacillin MIC + Peptide (S. maltophilia 34): 4 µg/mL
Peptide MIC Alone (S. maltophilia 34, Piperacillin section): >32 µg/mL
Ciprofloxacin MIC + Peptide (S. maltophilia 35): 0.5 µg/mL
Peptide MIC + Ciprofloxacin (S. maltophilia 35): 16 µg/mL
Peptide MIC + Piperacillin (S. maltophilia 35): 16 µg/mL
Piperacillin MIC + Peptide (S. maltophilia 35): 4 µg/mL
Peptide MIC Alone (S. maltophilia 35, Piperacillin section): >32 µg/mL
Gentamicin MIC + Peptide (S. maltophilia SMA016): 32 µg/mL
Peptide MIC + Gentamicin (S. maltophilia SMA016): 32 µg/mL
Gentamicin MIC + Peptide (S. maltophilia SMA017): 16 µg/mL
Peptide MIC + Gentamicin (S. maltophilia SMA017): 2 µg/mL
Ceftriaxone MIC + Peptide (S. maltophilia SMA019): 64 µg/mL
Peptide MIC + Ceftriaxone (S. maltophilia SMA019): 1 µg/mL
Ceftriaxone MIC + Peptide (S. maltophilia SMA020): 32 µg/mL
Peptide MIC + Ceftriaxone (S. maltophilia SMA020): 1 µg/mL
Amikacin MIC + Peptide (S. maltophilia SMA021): 8 µg/mL
Peptide MIC + Amikacin (S. maltophilia SMA021): 2 µg/mL
Peptide MIC + Tobramycin (S. maltophilia SMA029): 4 µg/mL
Peptide MIC Alone (S. maltophilia SMA029): >128 µg/mL
Tobramycin MIC + Peptide (S. maltophilia SMA029): 4 µg/mL
Peptide MIC + Tobramycin (S. maltophilia SMA030): 4 µg/mL
Peptide MIC Alone (S. maltophilia SMA030): >128 µg/mL
Tobramycin MIC + Peptide (S. maltophilia SMA030): 4 µg/mL
Amikacin MIC + Peptide (S. maltophilia SMA037): 16 µg/mL
Peptide MIC + Amikacin (S. maltophilia SMA037): 16 µg/mL
Peptide MIC + Piperacillin (S. marcescens 1): 0.5 µg/mL
Piperacillin MIC + Peptide (S. marcescens 1): 32 µg/mL
Peptide MIC Alone (S. marcescens 1, Piperacillin section): >128 µg/mL
FIC (peptide + Amikacin, A. baumannii ABI001): 0.50
FIC (peptide + Amikacin, A. baumannii ABI003): 0.38
FIC (peptide + Amikacin, S. maltophilia SMA021): 0.13
FIC (peptide + Amikacin, S. maltophilia SMA037): 0.19
FIC (peptide + Ceftriaxone, A. baumannii ABI002): 0.50
FIC (peptide + Ceftriaxone, A. baumannii ABI005): 0.56
FIC (peptide + Ceftriaxone, B. cepacia BC003): 0.50
FIC (peptide + Ceftriaxone, E. cloacae ECL014): 0.50
FIC (peptide + Ceftriaxone, E. cloacae ECL015): 0.19
FIC (peptide + Ceftriaxone, K. pneumoniae KP003): 0.56
FIC (peptide + Ceftriaxone, P. aeruginosa PA008): 0.13
FIC (peptide + Ceftriaxone, P. aeruginosa PA024): 0.50
FIC (peptide + Ceftriaxone, S. aureus SA025 MRSA): 0.52
FIC (peptide + Ceftriaxone, S. epidermidis SE007): 0.27
FIC (peptide + Ceftriaxone, S. epidermidis SE012): 0.27
FIC (peptide + Ceftriaxone, S. maltophilia SMA019): 0.50
FIC (peptide + Ceftriaxone, S. maltophilia SMA020): 0.38
FIC (peptide + Ciprofloxacin, A. calcoaceticus 1): 0.51
FIC (peptide + Ciprofloxacin, A. calcoaceticus 6): 0.50
FIC (peptide + Ciprofloxacin, E. cloacae 13): 0.27
FIC (peptide + Ciprofloxacin, E. cloacae 15): 0.38
FIC (peptide + Ciprofloxacin, E. cloacae 16): 0.38
FIC (peptide + Ciprofloxacin, P. aeruginosa 23): 0.53
FIC (peptide + Ciprofloxacin, P. aeruginosa 24): 0.53
FIC (peptide + Ciprofloxacin, P. aeruginosa PA41): 0.50
FIC (peptide + Ciprofloxacin, P. aeruginosa PA77): 0.56
FIC (peptide + Ciprofloxacin, S. aureus SA11): 0.50
FIC (peptide + Ciprofloxacin, S. maltophilia 34): 0.25
FIC (peptide + Ciprofloxacin, S. maltophilia 35): 0.50
FIC (peptide + Gentamicin, A. baumannii ABI001): 0.50
FIC (peptide + Gentamicin, A. baumannii ABI002): 0.53
FIC (peptide + Gentamicin, P. aeruginosa PA041): 0.63
FIC (peptide + Gentamicin, S. maltophilia SMA016): 0.25
FIC (peptide + Gentamicin, S. maltophilia SMA017): 0.38
FIC (peptide + Mupirocin, E. coli ECO5): 0.43
FIC (peptide + Mupirocin, E. coli SBECO2): 0.16
FIC (peptide + Mupirocin, P. aeruginosa PA2): 0.51
FIC (peptide + Mupirocin, P. aeruginosa PA4): 0.23
FIC (peptide + Mupirocin, S. aureus SBSA4): 0.28
FIC (peptide + Piperacillin, A. calcoaceticus 7): 0.25
FIC (peptide + Piperacillin, A. calcoaceticus 8): 0.19
FIC (peptide + Piperacillin, E. cloacae 13): 0.16
FIC (peptide + Piperacillin, H. influenzae 1): 0.53
FIC (peptide + Piperacillin, H. influenzae 2): 0.51
FIC (peptide + Piperacillin, P. aeruginosa 7): 0.25
FIC (peptide + Piperacillin, P. aeruginosa 23): 0.27
FIC (peptide + Piperacillin, P. aeruginosa 28): 0.14
FIC (peptide + Piperacillin, P. aeruginosa 41): 0.53
FIC (peptide + Piperacillin, S. aureus 19 MRSA): 0.16
FIC (peptide + Piperacillin, S. aureus SB3MRSA): 0.31
FIC (peptide + Piperacillin, S. maltophilia 3): 0.50
FIC (peptide + Piperacillin, S. maltophilia 34): 0.25
FIC (peptide + Piperacillin, S. maltophilia 35): 0.26
FIC (peptide + Piperacillin, S. marcescens 1): 0.50
FIC (peptide + Tobramycin, S. epidermidis SE067): 0.38
FIC (peptide + Tobramycin, S. epidermidis SE068): 0.27
FIC (peptide + Tobramycin, S. maltophilia SMA029): 0.05
FIC (peptide + Tobramycin, S. maltophilia SMA030): 0.05
FIC (peptide + Vancomycin, E. faecalis EFS005): 0.31
FIC (peptide + Vancomycin, E. faecalis EFS012): 0.07
FIC (peptide + Vancomycin, E. faecalis EFS013): 0.07
FIC (peptide + Vancomycin, E. faecium EFM010): 0.31
FIC (peptide + Vancomycin, E. faecium EFM011): 0.31
